Data reported in US11827628B2, “Compositions and methods for inhibition of the JAK pathway” (Rigel Pharmaceuticals, Inc., priority 2005, dated 2023).

Tested on: up-regulation of ICAM-1 (CD54) by IFNγ in U937 human monocytic cells
Experiment: U937 IFNγ ICAM1 FACS Assay
Assay type: cell-based
Conditions: U937 cells stimulated with IFNγ; ICAM-1 expression by FACS; read-out: IC50, Example 44
In short: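 U937 cells in 10% FCS RPMI were preincubated 30 min at 37 °C with an 8-point, 3-fold compound dilution series in duplicate, then stimulated with IFNγ for 18–24 h. Surface ICAM-1 was stained with APC anti-ICAM-1 and read by flow cytometry as geometric mean on live-gated cells. EC50 was derived.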

| Compound | IC50 [nM] |
| --- | --- |
| CC(Oc1ccc(Nc2nc(Nc3cccc(S(N)(=O)=O)c3)ncc2F)cc1)C(N)=O (racemic) [Compound I-117, Racemic N4-[4-(1-Aminocarbonyl)ethoxy]phenyl-N2-(3-aminosulfonyl)phenyl-5-fluoro-2,4-pyrimidinediamine] | 14600 |
| Cc1cc(Nc2nc(Nc3ccc(S(N)(=O)=O)cc3)ncc2F)ccc1OC(C)C(N)=O (racemic) [Compound I-119, Racemic N4-[4-(1-Aminocarbonyl)ethoxy-3-methyl]phenyl-N2-(4-aminosulfonyl)phenyl-5-fluoro-2,4-pyrimidinediamine] | 11900 |
| Cc1cc(Nc2nc(Nc3cccc(S(N)(=O)=O)c3)ncc2F)ccc1OC(C)C(N)=O (racemic) [Compound I-120, Racemic N4-[4-(1-Aminocarbonyl)ethoxy-3-methyl]phenyl-N2-(3-aminosulfonyl)phenyl-5-fluoro-2,4-pyrimidinediamine] | 4460 |
| Cc1cc(Nc2nc(Nc3ccc(C)c(S(N)(=O)=O)c3)ncc2F)ccc1OC(C)C(N)=O (racemic) [Compound I-121, Racemic N4-[4-(1-Aminocarbonyl)ethoxy-3-methyl]phenyl-N2-(3-aminosulfonyl-4-methyl)phenyl-5-fluoro-2,4-pyrimidinediamine] | 2990 |
| Cc1cc(Nc2nc(Nc3ccc(S(N)(=O)=O)cc3)ncc2F)cc(C)c1OC(C)C(N)=O (racemic) [Compound I-122, Racemic N4-[4-(1-Aminocarbonyl)ethoxy-3,5-dimethyl]phenyl-N2-(4-aminosulfonyl)phenyl-5-fluoro-2,4-pyrimidinediamine] | 15700 |
| Cc1cc(Nc2nc(Nc3cccc(S(N)(=O)=O)c3)ncc2F)cc(C)c1OC(C)C(N)=O (racemic) [Compound I-123, Racemic N4-[4-(1-Aminocarbonyl)ethoxy-3,5-dimethyl]phenyl-N2-(3-aminosulfonyl)phenyl-5-fluoro-2,4-pyrimidinediamine] | 2220 |
| Cc1ccc(Nc2ncc(F)c(Nc3cc(C)c(OC(C)C(N)=O)c(C)c3)n2)cc1S(N)(=O)=O (racemic) [Compound I-124, Racemic N4-[4-(1-Aminocarbonyl)ethoxy-3,5-dimethyl]phenyl-N2-(3-aminosulfonyl-4-methyl)phenyl-5-fluoro-2,4-pyrimidinediamine] | 1330 |
| Cc1ccc(Nc2ncc(F)c(Nc3ccc4c(c3)CC(C(=O)N(C)C)O4)n2)cc1S(N)(=O)=O (racemic) [VII-26, Racemic N2-(3-Aminosulfonyl-4-methylphenyl)-N4-[2-(N,N-dimethylaminocarbonyl)-2,3-dihydrobenzofuran-5-yl]-5-fluoro-2,4-pyrimidinediamine] | 9260 |
| CN(C)C(=O)C1Cc2cc(Nc3nc(Nc4ccc(Cl)c(S(N)(=O)=O)c4)ncc3F)ccc2O1 (racemic) [VII-27, Racemic N2-(3-Aminosulfonyl-4-chlorophenyl)-N4-[2-(N,N-dimethylaminocarbonyl)-2,3-dihydrobenzofuran-5-yl]-5-fluoro-2,4-pyrimidinediamine] | 6250 |
| CC(C)c1ccc(Nc2ncc(F)c(Nc3ccc(OCC#N)cc3)n2)cc1S(N)(=O)=O [Compound I-8, N2-(3-Aminosulfonyl-4-iso-propylphenyl)-N4-(4-cyanomethyleneoxyphenyl)-5-fluoro-2,4-pyrimidinediamine] | 410 |
| CN1CCN(c2ccc(Nc3ncc(F)c(Nc4ccc(OCC#N)cc4)n3)cc2S(N)(=O)=O)CC1 [Compound I-9, N2-[3-Aminosulfonyl-4-(4-methylpiperazin-1-yl)phenyl]-5-fluoro-N4-(4-cyanomethyleneoxyphenyl)-2,4-pyrimidinediamine] | 787 |
| CN1CCN(c2ccc(Nc3ncc(F)c(Nc4ccc(OCC#N)c(F)c4)n3)cc2S(N)(=O)=O)CC1 [Compound I-10, N2-[3-Aminosulfonyl-4-(4-methylpiperazine-1-yl)phenyl]-5-fluoro-N4-(4-cyanomethyleneoxy-3-fluorophenyl)-2,4-pyrimidinediamine] | 261 |
| Cc1ccc(Nc2ncc(F)c(Nc3ccc(OCC#N)c(F)c3)n2)cc1S(N)(=O)=O [Compound I-11, N2-(3-Aminosulfonyl-4-methylphenyl)-5-fluoro-N4-(4-cyanomethyleneoxy-3-fluorophenyl)-2,4-pyrimidinediamine] | 329 |
| N#CCOc1ccc(Nc2nc(Nc3cccc(S(N)(=O)=O)c3)ncc2F)cc1F [Compound I-12, N2-(3-Aminosulfonylphenyl)-5-fluoro-N4-(4-cyanomethyleneoxy-3-fluorophenyl)-2,4-pyrimidinediamine] | 222 |
| N#CCOc1ccc(Nc2nc(Nc3cccc(S(N)(=O)=O)c3)ncc2Br)cc1 [Compound I-13, N2-(3-Aminosulfonylphenyl)-5-bromo-N4-(4-cyanomethyleneoxyphenyl)-2,4-pyrimidinediamine] | 43.5 |
| Cc1ccc(Nc2ncc(Br)c(Nc3ccc(OCC#N)cc3)n2)cc1S(N)(=O)=O [Compound I-14, N2-(3-Aminosulfonyl-4-methylphenyl)-5-bromo-N4-(4-cyanomethyleneoxyphenyl)-2,4-pyrimidinediamine] | 41.8 |

| Compound | IC50 [nM] |
| --- | --- |
| C[Si](C)(C)C#Cc1cnc(Nc2cccc(S(N)(=O)=O)c2)nc1Nc1ccc(OCC#N)cc1 [Compound I-15, N2-(3-Aminosulfonylphenyl)-N4-(4-cyanomethyleneoxyphenyl)-5-trimethylsilylacetylene-2,4-pyrimidinediamine] | 4970 |
| Cc1ccc(Nc2ncc(F)c(Nc3cc(C)c(OCC(N)=O)c(C)c3)n2)cc1S(N)(=O)=O [Compound I-96, N4-(4-Aminocarbonylmethoxy-3,5-dimethyl)phenyl-N2-(3-aminosulfonyl-4-methyl)phenyl-5-fluoro-2,4-pyrimidinediamine] | 3300 |
| Cc1cc(Nc2nc(Nc3ccc(S(N)(=O)=O)cc3)ncc2F)ccc1OCC(N)=O [Compound I-113, N4-(4-Aminocarbonylmethoxy-3-methyl)phenyl-N2-(4-aminosulfonyl)phenyl-5-fluoro-2,4-pyrimidinediamine] | 13500 |
| Cc1ccc(Nc2ncc(F)c(Nc3ccc(OC(C)C(N)=O)cc3)n2)cc1S(N)(=O)=O (centres unmarked) [Compound I-118, N4-[4-(1-Aminocarbonyl)ethoxy]phenyl-N2-(3-aminosulfonyl-4-methyl)phenyl-5-fluoro-2,4-pyrimidinediamine] | 2430 |
| CC(C)(Oc1ccc(Nc2nc(Nc3cccc(S(N)(=O)=O)c3)ncc2F)cc1)C(N)=O [Compound I-126, N4-[4-(1-Aminocarbonyl-1-methyl)ethoxy]phenyl-N2-(3-aminosulfonyl)phenyl-5-fluoro-2,4-pyrimidinediamine] | 7200 |
| Cc1ccc(Nc2ncc(F)c(Nc3ccc(OC(C)(C)C(N)=O)cc3)n2)cc1S(N)(=O)=O [Compound I-127, N4-[4-(1-Aminocarbonyl-1-methyl)ethoxy]phenyl-N2-(3-aminosulfonyl-4-methyl)phenyl-5-fluoro-2,4-pyrimidinediamine] | 2510 |
| Cc1ccc(Nc2ncc(F)c(Nc3ccc(OCc4ccccn4)cc3)n2)cc1S(N)(=O)=O [Compound I-160, N2-(3-Aminosulfonyl-4-methylphenyl)-5-fluoro-N4-[4-(2-pyridinyl)methyleneoxyphenyl]-2,4-pyrimidinediamine] | 923 |
| NS(=O)(=O)c1ccc(Nc2ncc(F)c(Nc3ccc(OCc4ccccn4)cc3)n2)cc1 [Compound I-163, N2-(4-Aminosulfonylphenyl)-5-fluoro-N4-[4-(2-pyridinyl)methyleneoxyphenyl]-2,4-pyrimidinediamine] | 1410 |
| CCN(CC)CCNS(=O)(=O)c1ccc(Nc2ncc(F)c(Nc3ccc(OCc4ccccn4)cc3)n2)cc1 [Compound I-165, N2-[4-(2-N,N-Diethylaminoethyl)aminosulfonylphenyl)-5-fluoro-N4-[4-(2-pyridinyl)methyleneoxyphenyl]-2,4-pyrimidinediamine] | 1640 |
| CNS(=O)(=O)c1cc(Nc2ncc(F)c(Nc3ccc(-c4ccccn4)c(OCF)c3)n2)ccc1C [Compound I-173, 5-Fluoro-N2-[3-N-(methyl)aminosulfonyl-4-methylphenyl]-N4-[4-(2-pyridinyl)-3-fluoromethyleneoxyphenyl]-2,4-pyrimidinediamine] | 15500 |
| Cc1cnc(Nc2cccc(S(N)(=O)=O)c2)nc1Nc1ccc(OCc2ccccn2)cc1 [Compound I-179, N2-(3-Aminosulfonylphenyl)-5-methyl-N4-[4-(2-pyridinyl)methyleneoxyphenyl]-2,4-pyrimidinediamine] | 117 |
| CNS(=O)(=O)c1cc(Nc2ncc(C)c(Nc3ccc(OCc4ccccn4)cc3)n2)ccc1C [Compound I-180, 5-Methyl-N2-[3-(N-methylaminosulfony)-4-methylphenyl]-N4-[4-(2-pyridinyl)methyleneoxyphenyl]-2,4-pyrimidinediamine] | 456 |
| Cc1ccc(Nc2ncc(F)c(Nc3cccc(OCc4cccnc4)c3)n2)cc1S(N)(=O)=O [Compound I-183, N2-(3-Aminosulfonyl-4-methylphenyl)-5-fluoro-N4-[3-(3-pyridinyl)methyleneoxyphenyl]-2,4-pyrimidinediamine] | 2280 |
| CNS(=O)(=O)c1cc(Nc2ncc(F)c(Nc3cccc(OCc4cccnc4)c3)n2)ccc1C [Compound I-184, 5-Fluoro-N2-[3-(N-methylaminosulfony)-4-methylphenyl]-5-fluoro-N4-[3-(3-pyridinyl)methyleneoxyphenyl]-2,4-pyrimidinediamine] | 6620 |
| CCN(CC)CCNS(=O)(=O)c1ccc(Nc2ncc(F)c(Nc3cccc(OCc4cccnc4)c3)n2)cc1 [Compound I-186, N2-[4-(2-N,N-Diethylaminoethyl)aminosulfonylphenyl)-5-fluoro-N4-[3-(3-pyridinyl)methyleneoxyphenyl]-2,4-pyrimidinediamine] | 3530 |
| NS(=O)(=O)c1cccc(Nc2ncc(F)c(Nc3ccc(OCc4cccnc4)cc3)n2)c1 [Compound I-188, N2-(3-Aminosulfonylphenyl)-5-fluoro-N4-[4-(3-pyridinyl)methyleneoxyphenyl]-2,4-pyrimidinediamine] | 500 |
